Measured values from US8722658B2, “Azetidinyl diamides as monoacylglycerol lipase inhibitors” (Janssen Pharmaceutica, NV, priority 2009, dated 2014).

Tests used:
[1] = system: rat, CFA-induced thermal hypersensitivity; assay: CFA-Induced Paw Radiant Heat Hypersensitivity; type: in vivo; details: 30 mg/kg p.o., HPβCD, group mean values, last time point 180 or 300 min
Method: Each rat was placed in a test chamber on a warm glass surface and allowed to acclimate for approximately 10 min. A radiant thermal stimulus (beam of light) was then focused through the glass onto the plantar surface of each hind paw in turn. The thermal stimulus was automatically shut off by a photoelectric relay when the paw was moved or when the cut-off time was reached (20 sec for radiant heat at ˜5 amps). An initial (baseline) response latency to the thermal stimulus was recorded for each animal prior to the injection of complete Freund's adjuvant (CFA). 24 h following intraplantar CFA injection, the response latency of the animal to the thermal stimulus was then re-evaluated and compared to the animal's baseline response time. […] Post-compound treatment withdrawal latencies were assessed at fixed time intervals, typically 30, 60, 120, 180, and 300 min.
The percent reversal (% R) of hypersensitivity was calculated in one of two different ways: 1) using group mean values or 2) using individual animal values. […]
For all compounds, the % R of hypersensitivity was calculated using the mean value for groups of animals at each time point according to the following formula: % reversal=[(group treatment response−group CFA response)/(group baseline response−group CFA response)]×100 Results are given for the maximum % reversal observed for each compound at any time point tested. […]

mutant MGL = biological target: T1, mutant MGL (Homo sapiens, UniProt Q99685, L169S/L176S); assay: MGL ThermoFluor Assay-Mutant; details: read-out: MGL mutant ThermoFluor qKd (using qNMR conc.), compound concentration measured by qNMR
T1 sequence (Q99685 1-303 L169S/L176S): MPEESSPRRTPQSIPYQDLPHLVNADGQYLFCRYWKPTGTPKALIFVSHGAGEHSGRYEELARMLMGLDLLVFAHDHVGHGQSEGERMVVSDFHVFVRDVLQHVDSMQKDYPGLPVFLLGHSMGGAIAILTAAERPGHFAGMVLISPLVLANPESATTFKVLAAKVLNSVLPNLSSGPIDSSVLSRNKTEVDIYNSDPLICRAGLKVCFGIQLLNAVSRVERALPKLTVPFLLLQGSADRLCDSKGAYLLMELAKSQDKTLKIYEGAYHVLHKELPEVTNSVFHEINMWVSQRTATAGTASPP
Method: The ThermoFluor (TF) assay is a 384-well plate-based binding assay that measures thermal stability of proteins^1,2. […] TF dye used in all experiments was 1,8-ANS (Invitrogen: A-47). Final TF assay conditions used for MGL studies were 0.07 mg/ml of mutant MGL, 100 μM ANS, 200 mM NaCl, 0.001% Tween-20 in 50 mM PIPES (pH=7.0).
Screening compound plates contained 100% DMSO compound solutions at a single concentration. […] Columns 12 and 24 were used as DMSO reference and contained no compound. […] Following compound dispension, protein and dye solutions were added to achieve the final assay volume of 3 μL.
Bar-coded assay plates were robotically loaded onto a thermostatically controlled PCR-type thermal block and then heated from 40 to 90° C. degrees at a ramp-rate of 1° C./min for all experiments. Fluorescence was measured by continuous illumination with UV light (Hamamatsu LC6), supplied via fiber optics and filtered through a band-pass filter (380-400 nm; >6 OD cutoff). Fluorescence emission of the entire 384-well plate was detected by measuring light intensity using a CCD camera (Sensys, Roper Scientific) filtered to detect 500±25 nm, resulting in simultaneous and independent readings of all 384 wells. […]

Row | Compound | Method 1: peak % reversal [1] [%] | Kd (mutant MGL) [nM]
1 | O=C(c1ccc(-c2cccc(C(F)(F)F)c2)c(Cl)c1)N1CC(N2CCN(C(=O)c3cscn3)CC2)C1 [Cpd 1102] | 38 | 
2 | Cc1nc(C(=O)N2CCN(C3CN(C(=O)c4ccc(-c5cccc(C(F)(F)F)c5)cc4)C3)CC2)cs1 [Cpd 1217, 1-[(2-Methyl-l,3-thiazol-4-yl)carbonyl]-4-(1-{[3′-(trifluoromethyl)biphenyl-4-yl]carbonyl}azetidin-3-yl)piperazine] |  | 104
